The text below walks through data of ChEMBL document CHEMBL3797050, “Erinacine S, a Rare Sesterterpene from the Mycelia of Hericium erinaceus” (2016).

The test system of test [1] is Mus musculus. Description: Decrease in amyloid plaque burden in cerebral cortex of APPswe/PSIdeltaE9 double transgenic C57BL/6J mouse at 30 mg/kg/day administered via oral gavage for 30 days by AB10 staining based immunohistochemical assay. The test is classed as functional. On the set-up: scale not given: the % may be the effect or the level left.
Test [2] deals with Mus musculus. Description: Increase in nerve growth factor levels in cerebral cortex of APPswe/PSIdeltaE9 double transgenic C57BL/6J mouse at 30 mg/kg/day administered via oral gavage for 30 days. The test is classed as functional, organism-based.
The test system of test [3] is Mus musculus. Description: Effect on neprilysin levels in cerebral cortex of APPswe/PSIdeltaE9 double transgenic C57BL/6J mouse at 30 mg/kg/day administered via oral gavage for 30 days by Western blot analysis. Type of test: functional, organism-based. For orientation: In western blotting, separated proteins are transferred to a membrane and probed.
For test [4], the system named is Mus musculus. In words: Increase in insulin degrading enzyme in cerebral cortex of APPswe/PSIdeltaE9 double transgenic C57BL/6J mouse at 30 mg/kg/day administered via oral gavage for 30 days by Western blot analysis. Type of test: functional.

Active and inactive are the calls of the source. The rule behind the calls is not given here.

Consider `CC(C)C1=C2C3=CC=C(C=O)C[C@H](O[C@@H]4OC[C@@H](O)[C@H](O)[C@H]4O)[C@]3(C)CC[C@@]2(C)CC1`, for which the Activity with Mus musculus [1] is 40.2%; in the test on Mus musculus [4] it was 130.5%. Moreover, the outcome in the test on Mus musculus [2] and with Mus musculus [3] was inactive.
Regarding `CC(C)C1=C2[C@H]3CCC4=C(O)C(=O)[C@@]5(O)CO[C@H]6O[C@@H]([C@@H]4[C@]65O)[C@]3(C)CC[C@@]2(C)CC1`, the Activity is reported as 38.1% with Mus musculus [1] and 141.1% in the test with Mus musculus [4]. In addition, the result with Mus musculus [2] and in the test on Mus musculus [3] was inactive.
